Source: US20070043049A1, “Substituted heterocyclic diarylamine analogues” (Neurogen Corporation, priority 2003, published 2007)

Molecular target: T1, human capsaicin receptor (Homo sapiens, UniProt Q8NER1)
T1 construct: pBK-CMV expression construct encoding the full length human capsaicin receptor; expressed in transfected cells
Test: Calcium mobilization assay, determination of antagonist activity (Example 6)
Format: cell-based
Settings: 50% decrease in fluorescence response of cells expressing human capsaicin receptor exposed to capsaicin
Procedure, shortened: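 HEK293 cells stably expressing full-length human capsaicin receptor, Fluo-3 AM loaded, preincubated with compound 0.5–6 h at room temperature in KRH buffer pH 7.4. Challenged with capsaicin at its EC50; FLIPR fluorescence read. IC50 is concentration halving the capsaicin-induced calcium response.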

T1 sequence (Q8NER1 whole entry): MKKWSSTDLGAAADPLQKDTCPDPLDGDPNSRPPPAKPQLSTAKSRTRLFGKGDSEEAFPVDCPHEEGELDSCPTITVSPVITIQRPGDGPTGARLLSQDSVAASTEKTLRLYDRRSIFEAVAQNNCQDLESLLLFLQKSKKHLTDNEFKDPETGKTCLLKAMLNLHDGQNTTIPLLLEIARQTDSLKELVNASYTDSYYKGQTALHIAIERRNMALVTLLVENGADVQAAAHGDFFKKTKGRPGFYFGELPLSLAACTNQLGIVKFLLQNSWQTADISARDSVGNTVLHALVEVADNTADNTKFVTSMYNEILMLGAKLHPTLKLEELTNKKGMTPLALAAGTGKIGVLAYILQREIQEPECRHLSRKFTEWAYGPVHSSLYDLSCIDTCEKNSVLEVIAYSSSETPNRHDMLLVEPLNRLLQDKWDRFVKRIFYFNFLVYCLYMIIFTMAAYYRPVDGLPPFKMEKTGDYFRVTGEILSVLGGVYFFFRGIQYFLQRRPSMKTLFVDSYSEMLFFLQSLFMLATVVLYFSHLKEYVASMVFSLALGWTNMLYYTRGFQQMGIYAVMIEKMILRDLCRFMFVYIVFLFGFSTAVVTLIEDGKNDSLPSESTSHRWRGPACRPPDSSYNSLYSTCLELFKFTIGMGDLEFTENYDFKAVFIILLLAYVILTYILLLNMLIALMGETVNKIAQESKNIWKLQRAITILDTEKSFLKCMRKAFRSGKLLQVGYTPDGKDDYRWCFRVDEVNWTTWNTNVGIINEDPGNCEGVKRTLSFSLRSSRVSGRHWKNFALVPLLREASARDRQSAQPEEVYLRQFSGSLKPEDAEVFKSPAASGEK

| Compound | IC50 |
| --- | --- |
| CCN(CC)c1nc(Nc2ccc(F)c(F)c2)nc(N2CCN(c3ccccn3)CC2)n1 [Compound 95, N-(3,4-Difluoro-phenyl)-N′,N′-diethyl-6-(4-pyridin-2-yl-piperazin-1-yl)-[1,3,5]triazine-2,4-diamine] | ≤ 1 µM |
| FC(F)(F)c1ccc(Nc2nc(N3CCOCC3)nc(N3CCN(c4ncccc4Cl)CC3)n2)cc1 [Compound 96, {4-[4-(3-Chloro-pyridin-2-yl)-piperazin-1-yl]-6-morpholin-4-yl-[1,3,5]triazin-2-yl}-(4-trifluoromethyl-phenyl)-amine] | ≤ 1 µM |
| Clc1cccnc1N1CCN(c2nc(Nc3ccccc3)nc(N3CCOCC3)n2)CC1 [Compound 97, {4-[4-(3-Chloro-pyridin-2-yl)-piperazin-1-yl]-6-morpholin-4-yl-[1,3,5]triazin-2-yl}-phenyl-amine] | ≤ 1 µM |
| Fc1ccc(Nc2cc(N3CCN(c4ccccn4)CC3)nc(N3CCOCC3)n2)cc1 [Compound 98, (4-Fluoro-phenyl)-[2-morpholin-4-yl-6-(4-pyridin-2-yl-piperazin-1-yl)-pyrimidin-4-yl]-amine] | ≤ 1 µM |
| CCN(CC)c1nc(Nc2ccc(F)c(F)c2)nc(N2CCN(c3ncccc3C(F)(F)F)C[C@H]2C)n1 [Compound 99, N-(3,4-Difluoro-phenyl)-N′,N′-diethyl-6-[2-methyl-4-(3-trifluoromethyl-pyridin-2-yl)-piperazin-1-yl]-[1,3,5]triazine-2,4-diamine (R)] | ≤ 1 µM |
| CCN(CC)c1nc(Nc2ccc(F)c(F)c2)nc(N2CCN(c3ncccc3Cl)C[C@H]2C)n1 [Compound 100, 6-[4-(3-Chloro-pyridin-2-yl)-2-methyl-piperazin-1-yl]-N-(3,4-difluoro-phenyl)-N′,N′-diethyl-[1,3,5]triazine-2,4-diamine (R)] | ≤ 1 µM |
| C[C@@H]1CN(c2ncccc2Cl)CCN1c1nc(Nc2ccc(F)c(F)c2)nc(N2CCOCC2)n1 [Compound 101, {4-[4-(3-Chloro-pyridin-2-yl)-2-methyl-piperazin-1-yl]-6-morpholin-4-yl-[1,3,5]triazin-2-yl}-(3,4-difluoro-phenyl)-amine (R)] | ≤ 1 µM |
| CCN(CC)c1nc(Nc2ccc(F)c(F)c2)nc(N2CCN(c3ncccc3S(C)(=O)=O)C[C@H]2C)n1 [Compound 102, N-(3,4-Difluoro-phenyl)-N′,N′-diethyl-6-[4-(3-methanesulfonyl-pyridin-2-yl)-2-methyl-piperazin-1-yl]-[1,3,5]triazine-2,4-diamine (R)] | ≤ 1 µM |
| C[C@@H]1CN(c2ncccc2S(C)(=O)=O)CCN1c1nc(Nc2ccc(F)c(F)c2)nc(N2CCOCC2)n1 [Compound 103, (3,4-Difluoro-phenyl)-{4-[4-(3-methanesulfonyl-pyridin-2-yl)-2-methyl-piperazin-1-yl]-6-morpholin-4-yl-[1,3,5]triazin-2-yl}-amine (R)] | ≤ 1 µM |
| Fc1ccc(Nc2cc(N3CCOCC3)nc(N3CCN(c4ncccc4C(F)(F)F)CC3)n2)cc1 [Compound 105, (4-Fluoro-phenyl)-{6-morpholin-4-yl-2-[4-(3-trifluoromethyl-pyridin-2-yl)-piperazin-1-yl]-pyrimidin-4-yl}-amine] | ≤ 1 µM |
| Cc1ccc(Nc2cc(N3CCOCC3)nc(N3CCN(c4ncccc4C(F)(F)F)CC3)n2)cc1 [Compound 106, {6-Morpholin-4-yl-2-[4-(3-trifluoromethyl-pyridin-2-yl)-piperazin-1-yl]-pyrimidin-4-yl}-p-tolyl-amine] | ≤ 1 µM |
| CCN(CC)c1nc(Nc2ccc(C#N)cc2)nc(N2CCN(c3ncccc3Cl)CC2)n1 [Compound 107, 4-{4-[4-(3-Chloro-pyridin-2-yl)-piperazin-1-yl]-6-diethylamino-[1,3,5]triazin-2-ylamino}-benzonitrile] | ≤ 1 µM |
| CCN(CC)c1nc(Nc2cc(OC)ccc2OC)nc(N2CCN(c3ccccn3)CC2)n1 [Compound 108, N-(2,5-Dimethoxy-phenyl)-N′,N′-diethyl-6-(4-pyridin-2-yl-piperazin-1-yl)-[1,3,5]triazine-2,4-diamine] | ≤ 1 µM |
| COCc1nc(Nc2ccc(F)c(F)c2)cc(N2CCN(c3ncccc3C(F)(F)F)CC2)n1 [Compound 109, (3,4-Difluoro-phenyl)-{2-methoxymethyl-6-[4-(3-trifluoromethyl-pyridin-2-yl)-piperazin-1-yl]-pyrimidin-4-yl}-amine] | ≤ 1 µM |
| OCc1nc(Nc2ccc(F)c(F)c2)cc(N2CCN(c3ncccc3C(F)(F)F)CC2)n1 [Compound 110, {4-(3,4-Difluoro-phenylamino)-6-[4-(3-trifluoromethyl-pyridin-2-yl)-piperazin-1-yl]-pyrimidin-2-yl}-methanol] | ≤ 1 µM |
| CCN(CC)Cc1nc(Nc2ccc(F)c(F)c2)cc(N2CCN(c3ncccc3C(F)(F)F)CC2)n1 [Compound 111, {2-Diethylaminomethyl-6-[4-(3-trifluoromethyl-pyridin-2-yl)-piperazin-1-yl]-pyrimidin-4-yl}-(3,4-difluoro-phenyl)-amine] | ≤ 1 µM |
| Fc1ccc(Nc2cc(N3CCN(c4ncccc4C(F)(F)F)CC3)nc(CN3CCOCC3)n2)cc1F [Compound 112, (3,4-Difluoro-phenyl)-{2-morpholin-4-ylmethyl-6-[4-(3-trifluoromethyl-pyridin-2-yl)-piperazin-1-yl]-pyrimidin-4-yl}-amine] | ≤ 1 µM |
| C[C@@H]1CN(Cc2nc(Nc3ccc(F)c(F)c3)cc(N3CCN(c4ncccc4C(F)(F)F)CC3)n2)C[C@H](C)O1 [Compound 113, (3,4-Difluoro-phenyl)-{2-(2,6-dimethyl-morpholin-4-ylmethyl)-6-[4-(3-trifluoromethyl-pyridin-2-yl)-piperazin-1-yl]-pyrimidin-4-yl}-amine] | ≤ 1 µM |
| CCCCc1ccc(-c2nc(Nc3ccc(C(F)(F)F)cc3)nc(N3CCN(c4ncccc4Cl)C[C@H]3C)n2)cc1 [Compound 115, {4-(4-Butyl-phenyl)-6-[4-(3-chloro-pyridin-2-yl)-2-methyl-piperazin-1-yl]-[1,3,5]triazin-2-yl}-(4-trifluoromethyl-phenyl)-amine] | ≤ 1 µM |
| COc1ccc(-c2nc(Nc3ccc(C(F)(F)F)cc3)nc(N3CCN(c4ncccc4Cl)C[C@H]3C)n2)c(OC)c1 [Compound 116, [4-[4-(3-Chloro-pyridin-2-yl)-2-methyl-piperazin-1-yl]-6-(2,4-dimethoxy-phenyl)-[1,3,5]triazin-2-yl]-(4-trifluoromethyl-phenyl)-amine] | ≤ 1 µM |
